# From patent publication US7402687B2, “Dihydrobenzofuran derivatives and uses thereof” (Wyeth, priority 2005, dated 2008)
# Key:
# [1] = molecular target: T1, human 5-hydroxytryptamine-2C (h5-HT2C) receptor (Homo sapiens, UniProt P28335); assay: [125I]DOI competition binding at h5-HT2C receptor in transfected CHO cell membranes; conditions: [125I]DOI displacement, CHO membranes expressing h5-HT2C; 95% confidence interval in adjacent column
# T1 construct: expressed in transfected cells; host or cells: CHO (Chinese Hamster Ovary) cells; membrane preparation
# T1 sequence (P28335 33-458): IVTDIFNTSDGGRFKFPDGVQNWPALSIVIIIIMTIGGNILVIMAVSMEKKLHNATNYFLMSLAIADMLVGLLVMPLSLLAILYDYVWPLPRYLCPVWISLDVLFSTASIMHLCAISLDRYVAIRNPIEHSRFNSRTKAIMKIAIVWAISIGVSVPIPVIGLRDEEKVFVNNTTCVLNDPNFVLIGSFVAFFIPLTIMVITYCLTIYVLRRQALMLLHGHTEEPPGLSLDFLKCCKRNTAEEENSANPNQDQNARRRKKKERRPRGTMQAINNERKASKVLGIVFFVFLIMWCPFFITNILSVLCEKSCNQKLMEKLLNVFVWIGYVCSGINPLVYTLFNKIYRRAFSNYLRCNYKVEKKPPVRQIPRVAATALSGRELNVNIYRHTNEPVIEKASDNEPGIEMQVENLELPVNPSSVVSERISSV
# [2] = molecular target: T2, human serotonin 5-HT2C receptor (Homo sapiens, UniProt P28335); assay: Saturation binding of [125I]DOI at the human 5-HT2C receptor; conditions: saturation binding with increasing concentrations of [125I]DOI; read-out: dissociation constant, KD
# T2 construct: expressed in transfected cells; host or cells: CHO (Chinese Hamster Ovary) cells; membrane preparation
# T2 sequence (P28335 33-458): T1 sequence (P28335 33-458)
# Source text: To evaluate the affinity of various compounds of formula I for activity at the 5-HT2C receptor, a CHO (Chinese Hamster Ovary) cell line transfected with the cDNA expressing the human 5-hydroxytryptamine-2C (h5-HT2C) receptor is maintained in DMEM (Dulbecco's Modified Eagle Media) supplied with fetal calf serum, glutamine, and the markers: guaninephosphoribosyl transferase (GTP) and hypoxanthinethymidine (HT). The cells are allowed to grow to confluence in large culture dishes with intermediate changes of media and splitting. Upon reaching confluence, the cells are harvested by scraping. The harvested cells are suspended in half volume of fresh physiological phosphate buffered saline (PBS) solution and centrifuged at low speed (900×g). This operation is repeated once. The collected cells are then homogenized with a polytron at setting #7 for 15 sec in ten volumes of 50 mM Tris.HCl, pH 7.4 and 0.5 mM EDTA. […] The resulting pellet is resuspended in a small volume of Tris.HCl buffer and the tissue protein content is determined in aliquots of 10-25 μL volumes. […]
# The dissociation constant, KD of [^125I] […] The bound complex caught on the filter disk is dried in a vacuum oven heated to 60° C. and the radioactivity measured by liquid scintillation with 40 μL Microscint-20 scintillant in a Packard TopCount® equipped with six (6) photomultiplier detectors.
SMILES,Ki [1] [nM],Kd [2] [nM]
CSc1ccc2c(c1)C(N1CCN(C)CC1)Cc1ccccc1S2 (centres unmarked) [Methiothepin],4.6,–
COc1cc(CC(C)N)c(OC)cc1I (centres unmarked) [[^125I] DOI],–,0.4
